# Results taken from patent publication US10513493B2, “Cyclopropylamines as LSD1 inhibitors” (Incyte Corporation, priority 2014, dated 2019).
# Molecular target: LSD-1 enzyme (Homo sapiens (Human), UniProt O60341)
# Experiment: LANCE LSD1/KDM1A demethylase assay (LSD1 histone demethylase biochemical assay)
# Conditions: 1 nM LSD-1 enzyme, 1 hour preincubation at 25° C., 0.4 μM Biotin-labeled Histone H3 peptide substrate
# Procedure: Example A: LSD1 histone demethylase biochemical assay
# LANCE LSD1/KDM1A demethylase assay—10 μL of 1 nM LSD-1 enzyme (ENZO BML-SE544-0050) in the assay buffer (50 mM Tris, pH 7.5, 0.01% Tween-20, 25 mM NaCl, 5 mM DTT) were preincubated for 1 hour at 25° C. with 0.8 μL compound/DMSO dotted in black 384 well polystyrene plates. Reactions were started by addition of 10 μL of assay buffer containing 0.4 μM Biotin-labeled Histone H3 peptide substrate: ART-K(Me1)-[…]-GGK(Biotin) SEQ ID NO: 1 (AnaSpec 64355) and incubated for 1 hour at 25° C. Reactions were stopped by addition of 10 μL 1× LANCE Detection Buffer (PerkinElmer CR97-100) supplemented with 1.5 nM Eu-anti-unmodified H3K4 Antibody (PerkinElmer TRF0404), and 225 nM LANCE Ultra Streptavidin (PerkinElmer TRF102) along with 0.9 mM Tranylcypromine-HCl (Millipore 616431). After stopping the reactions plates were incubated for 30 minutes and read on a PHERAstar FS plate reader (BMG Labtech).
row,SMILES,IC50
1,"COc1cc(N2CC(CN[C@@H]3C[C@H]3c3ccccc3)C2)ccc1C(=O)NC(C)C (relative stereo) [Example 13, N-Isopropyl-2-methoxy-4-(3-{[(trans-2-phenylcyclopropyl)amino]methyl}azetidin-1-yl)benzamide]",< 100 nM
2,"CC(C)NC(=O)c1ccc(N2CC(CN[C@@H]3C[C@H]3c3ccccc3)C2)c(F)c1 (relative stereo) [Example 10, 3-Fluoro-N-isopropyl-4-(3-{[(trans-2-phenylcyclopropyl)amino]methyl}azetidin-1-yl)benzamide]",< 100 nM
3,"CN(C)C(=O)c1ccc(N2CCC(C)(CN[C@@H]3C[C@H]3c3ccccc3)CC2)cn1 [Example 28, N,N-dimethyl-5-[4-methyl-4-({[(1R,2S)-2-phenylcyclopropyl]amino}methyl)piperidin-1-yl]pyridine-2-carboxamide]",< 100 nM
4,"CC(C)NC(=O)c1c(F)cc(N2CC(CN[C@@H]3C[C@H]3c3ccccc3)C2)cc1F (relative stereo) [Example 7, 2,6-Difluoro-N-isopropyl-4-(3-{[(trans-2-phenylcyclopropyl)amino]methyl}azetidin-1-yl)benzamide]",< 100 nM
5,"N#Cc1ccc(N2CC(CN[C@@H]3C[C@H]3c3ccccc3)C2)c(F)c1 (relative stereo) [Example 1, 3-Fluoro-4-[3-({[trans-2-phenylcyclopropyl]amino}methyl)azetidin-1-yl]benzonitrile]",< 100 nM
6,"COCC1(CN[C@@H]2C[C@H]2c2ccccc2)CCN(c2ccnc(C(=O)O)c2)CC1 [Example 23, 4-[4-(methoxymethyl)-4-({[(1R,2S)-2-phenylcyclopropyl]amino}methyl)piperidin-1-yl]pyridine-2-carboxylic acid]",< 100 nM
7,"COCC1(CN[C@@H]2C[C@H]2c2ccccc2)CCN(c2cccc(C(=O)O)n2)CC1 [Example 24, 6-[4-(methoxymethyl)-4-({[(1R,2S)-2-phenylcyclopropyl]amino}methyl)piperidin-1-yl]pyridine-2-carboxylic acid]",< 100 nM
8,"CC1(CN[C@@H]2C[C@H]2c2ccccc2)CCN(c2cccc(C(=O)O)n2)CC1 [Example 26, 6-[4-methyl-4-({[(1R,2S)-2-phenylcyclopropyl]amino}methyl)piperidin-1-yl]pyridine-2-carboxylic acid]",< 100 nM
9,"Nc1ccnc(N2CCC(N[C@H]3C[C@@H]3c3ccccc3)CC2)n1 [Example 31, 2-(4-{[(1S,2R)-2-phenylcyclopropyl]amino}piperidin-1-yl)pyrimidin-4-amine]",100 to 500 nM
10,"O=C(NC1(C(F)(F)F)CC1)c1ccc(N2CC(CN[C@@H]3C[C@H]3c3ccccc3)C2)cn1 (relative stereo) [Example 15, 5-(3-{[(trans-2-Phenylcyclopropyl)amino]methyl}azetidin-1-yl)-N-[1-(trifluoromethyl)cyclopropyl]pyridine-2-carboxamide]",< 100 nM
11,"CC(C)NC(=O)c1ccc(N2CC(CN[C@@H]3C[C@H]3c3ccccc3)C2)c(Cl)c1 (relative stereo) [Example 14, 3-Chloro-N-isopropyl-4-(3-{[(trans-2-phenylcyclopropyl)amino]methyl}azetidin-1-yl)benzamide]",< 100 nM
12,"Cc1nc(N2CC(CN[C@@H]3C[C@H]3c3ccccc3)C2)ccc1C#N (relative stereo) [Example 4, 2-Methyl-6-[3-({[trans-2-phenylcyclopropyl]amino}methyl)azetidin-1-yl]nicotinonitrile]",< 100 nM
13,"O=C(O)C1(c2ccc(N3CCC(CN[C@@H]4C[C@H]4c4ccccc4)(Cc4ccc(F)cc4)CC3)cc2)CC1 [Example 22, 1-{4-[4-(4-fluorobenzyl)-4-({[(1R,2S)-2-phenylcyclopropyl]amino}methyl)piperidin-1-yl]phenyl}cyclopropanecarboxylic acid]",< 100 nM
14,"N#CCC1(CN[C@@H]2C[C@H]2c2ccccc2)CCN(c2cccc(Cl)c2C#N)CC1 (relative stereo) [Example 18, 2-Chloro-6-(4-(cyanomethyl)-4-{[(trans-2-phenylcyclopropyl)amino]methyl}piperidin-1-yl)benzonitrile]",< 100 nM
15,"N#CCC1(CN[C@@H]2C[C@H]2c2ccccc2)CCN(c2ncccc2C(F)(F)F)CC1 (relative stereo) [Example 19, {4-{[(trans-2-Phenylcyclopropyl)amino]methyl}-1-[3-(trifluoromethyl)pyridin-2-yl]piperidin-4-yl}acetonitrile]",< 100 nM
16,"CNC(=O)c1ccc(N2CCC(C)(CN[C@@H]3C[C@H]3c3ccccc3)CC2)cn1 [Example 29, N-methyl-5-[4-methyl-4-({[(1R,2S)-2-phenylcyclopropyl]amino}methyl)piperidin-1-yl]pyridine-2-carboxamide]",< 100 nM

row,SMILES,IC50
1,"Nc1ccnc(N2CCC(N[C@@H]3C[C@H]3c3ccccc3)CC2)n1 [Example 30, 2-(4-{[(1R,2S)-2-phenylcyclopropyl]amino}piperidin-1-yl)pyrimidin-4-amine]",< 100 nM
2,"CC1(CN[C@@H]2C[C@H]2c2ccccc2)CCN(c2ccc(C(=O)O)nc2)CC1 [Example 25, 5-[4-methyl-4-({[(1R,2S)-2-phenylcyclopropyl]amino}methyl)piperidin-1-yl]pyridine-2-carboxylic acid]",< 100 nM
3,"CC(C)NC(=O)c1cc(F)c(N2CC(CN[C@@H]3C[C@H]3c3ccccc3)C2)cc1F (relative stereo) [Example 3, 2,5-Difluoro-N-isopropyl-4-(3-{[(trans-2-phenylcyclopropyl)amino]methyl}azetidin-1-yl)benzamide]",< 100 nM
4,"CC1(CN[C@@H]2C[C@H]2c2ccccc2)CCN(c2ccnc(C(=O)O)c2)CC1 [Example 27, 4-[4-methyl-4-({[(1R,2S)-2-phenylcyclopropyl]amino}methyl)piperidin-1-yl]pyridine-2-carboxylic acid]",< 100 nM
5,"O=C(O)c1ccc(N2CCC(CN[C@@H]3C[C@H]3c3ccccc3)(Cc3ccc(F)cc3)CC2)cn1 [Example 21, 5-[4-(4-fluorobenzyl)-4-({[(1R,2S)-2-phenylcyclopropyl]amino}methyl)piperidin-1-yl]pyridine-2-carboxylic acid]",< 100 nM
6,"Cn1cc(N2CC(CN[C@@H]3C[C@H]3c3ccccc3)C2)cn1 (relative stereo) [Example 17, trans-N-{[1-(1-Methyl-1H-pyrazol-4-yl)azetidin-3-yl]methyl}-2-phenylcyclopropanamine]",< 100 nM
7,"CC(C)NC(=O)c1ccc(N2CC(CN[C@@H]3C[C@H]3c3ccccc3)C2)cc1F (relative stereo) [Example 11, 2-Fluoro-N-isopropyl-4-(3-{[(trans-2-phenylcyclopropyl)amino]methyl}azetidin-1-yl)benzamide]",< 100 nM
8,"Cc1cc(C(=O)NC(C)C)c(F)cc1N1CC(CN[C@@H]2C[C@H]2c2ccccc2)C1 (relative stereo) [Example 12, 2-Fluoro-N-isopropyl-5-methyl-4-(3-{[(trans-2-phenylcyclopropyl)amino]methyl}azetidin-1-yl)benzamide]",< 100 nM
9,"CC(C)NC(=O)c1cc(F)c(N2CC(CN[C@@H]3C[C@H]3c3ccccc3)C2)cc1Cl (relative stereo) [Example 9, 2-Chloro-5-fluoro-N-isopropyl-4-(3-{[(trans-2-phenylcyclopropyl)amino]methyl}azetidin-1-yl)benzamide]",< 100 nM
10,"N#Cc1cc(F)c(N2CC(CN[C@@H]3C[C@H]3c3ccccc3)C2)c(F)c1 (relative stereo) [Example 2, 3,5-Difluoro-4-[3-({[trans-2-phenylcyclopropyl]amino}methyl)azetidin-1-yl]benzonitrile]",< 100 nM
11,"CC(C)NC(=O)c1cc(F)c(N2CC(CN[C@@H]3C[C@H]3c3ccccc3)C2)c(F)c1 (relative stereo) [Example 6, 3,5-Difluoro-N-isopropyl-4-(3-{[(trans-2-phenylcyclopropyl)amino]methyl}azetidin-1-yl)benzamide]",< 100 nM
12,"CC(C)NC(=O)c1ccc(N2CC(CN[C@@H]3C[C@H]3c3ccccc3)C2)c(F)c1F (relative stereo) [Example 8, 2,3-Difluoro-N-isopropyl-4-(3-{[(trans-2-phenylcyclopropyl)amino]methyl}azetidin-1-yl)benzamide]",< 100 nM
13,"O=C(O)c1cccc(N2CCC(CN[C@@H]3C[C@H]3c3ccccc3)(Cc3ccc(F)cc3)CC2)n1 [Example 20, 6-[4-(4-fluorobenzyl)-4-({[(1R,2S)-2-phenylcyclopropyl]amino}methyl)piperidin-1-yl]pyridine-2-carboxylic acid]",< 100 nM
14,"CN1CCN(c2cc(N3CC(CN[C@@H]4C[C@H]4c4ccccc4)C3)ncn2)CC1 (relative stereo) [Example 16, N-({1-[6-(4-Methylpiperazin-1-yl)pyrimidin-4-yl]azetidin-3-yl}methyl)-trans-2-phenylcyclopropanamine]",< 100 nM
15,"CCNC(=O)c1cnc(N2CC(CN[C@@H]3C[C@H]3c3ccccc3)C2)cn1 (relative stereo) [Example 5, N-Ethyl-5-(3-{[(trans-2-phenylcyclopropyl)amino]methyl}azetidin-1-yl)pyrazine-2-carboxamide]",< 100 nM
